In ChEMBL document CHEMBL1201862, “PubChem BioAssay data set” (2004):
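Five compound concentrations were applied to cells in 96-well plates for 48 hours; endpoints were derived by simple linear interpolation of the resulting dose-response curve. At the GI50, growth is halved.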 The source made the active and inactive calls. Cut-off read from the data, not from the text of the source: active = GI50 up to about 1.1 µM and inactive = higher.

Legend:
Assay in all cases: DTP human tumour cell line panel, 48 h
CAKI-1 = system: CAKI-1
OVCAR-8 = system: OVCAR-8
IGROV-1 = system: IGROV-1
SF-268 = system: SF-268
RPMI-8226 = system: RPMI-8226
CCRF-CEM = system: CCRF-CEM
SK-MEL-2 = system: SK-MEL-2
HCT-116 = system: HCT-116
SN12C = system: SN12C
SF-539 = system: SF-539
NCI-H23 = system: NCI-H23
U-251 = system: U-251
NCI-H522 = system: NCI-H522
UO-31 = system: UO-31
786-0 = system: 786-0
Malme-3M = system: Malme-3M
SNB-19 = system: SNB-19
SK-MEL-5 = system: SK-MEL-5
NCI-H226 = system: NCI-H226
DLD-1 = system: DLD-1
HCT-15 = system: HCT-15
K562 = system: K562
SK-MEL-28 = system: SK-MEL-28
SF-295 = system: SF-295
HOP-18 = system: HOP-18
NCI-H460 = system: NCI-H460
SK-OV-3 = system: SK-OV-3
OVCAR-4 = system: OVCAR-4
HL-60 = system: HL-60
LXFL 529 = system: LXFL 529
OVCAR-5 = system: OVCAR-5
MOLT-4 = system: MOLT-4
M19-MEL = system: M19-MEL
OVCAR-3 = system: OVCAR-3
SNB-75 = system: SNB-75
HT-29 = system: HT-29
UACC-257 = system: UACC-257
SW-620 = system: SW-620
SNB-78 = system: SNB-78
COLO 205 = system: COLO 205
KM12 = system: KM12
DMS-114 = system: DMS-114
A549 = system: A549
LOX IMVI = system: LOX IMVI
HOP-62 = system: HOP-62
UACC-62 = system: UACC-62
HOP-92 = system: HOP-92
A498 = system: A498
M14 = system: M14
TK-10 = system: TK-10
ACHN = system: ACHN
KM-20L2 = system: KM-20L2
RXF 393 = system: RXF 393
XF498 = system: XF498
SR = system: SR
DMS-273 = system: DMS-273
HCC 2998 = system: HCC 2998

Cn1c(O)c(C(=O)Nc2cccs2)c(=O)[nH]c1=S
GI50 (CAKI-1): 13 µM (inactive) | GI50 (OVCAR-8): 14 µM (inactive) | GI50 (IGROV-1): 18.2 µM (inactive) | GI50 (SF-268): 18.8 µM (inactive) | GI50 (RPMI-8226): 19.5 µM (inactive) | GI50 (CCRF-CEM): 39 µM (inactive) | GI50 (SK-MEL-2): 16.4 µM (inactive) | GI50 (HCT-116): 13.4 µM (inactive) | GI50 (SN12C): 17.7 µM (inactive) | GI50 (SF-539): 16.5 µM (inactive) | GI50 (NCI-H23): 14.5 µM (inactive) | GI50 (U-251): 14.8 µM (inactive) | GI50 (NCI-H522): 13.5 µM (inactive) | GI50 (UO-31): 12.2 µM (inactive) | GI50 (786-0): 20.2 µM (inactive) | GI50 (Malme-3M): 16.1 µM (inactive) | GI50 (SNB-19): 28.9 µM (inactive) | GI50 (SK-MEL-5): 13.6 µM (inactive) | GI50 (NCI-H226): 14.5 µM (inactive) | GI50 (DLD-1): 21.2 µM (inactive) | GI50 (HCT-15): 12.7 µM | GI50 (K562): 51.9 µM (inactive) | GI50 (SK-MEL-28): 15.1 µM (inactive) | GI50 (SF-295): 15.5 µM (inactive) | GI50 (HOP-18): 0.0865 µM (active) | GI50 (NCI-H460): 19.4 µM (inactive) | GI50 (SK-OV-3): 16 µM (inactive) | GI50 (OVCAR-4): 22.5 µM (inactive) | GI50 (HL-60): 78.9 µM (inactive) | GI50 (LXFL 529): 12.1 µM (inactive) | GI50 (OVCAR-5): 28.6 µM (inactive) | GI50 (MOLT-4): 24.7 µM (inactive) | GI50 (M19-MEL): 19.1 µM (inactive) | GI50 (OVCAR-3): 19.9 µM (inactive) | GI50 (SNB-75): 16.9 µM (inactive) | GI50 (HT-29): 18.2 µM (inactive) | GI50 (UACC-257): 15.4 µM (inactive) | GI50 (SW-620): 26.2 µM (inactive) | GI50 (SNB-78): 18.9 µM (inactive) | GI50 (COLO 205): 16.6 µM (inactive) | GI50 (KM12): 17.9 µM (inactive) | GI50 (DMS-114): 14.5 µM (inactive) | GI50 (A549): 19.4 µM (inactive) | GI50 (LOX IMVI): 15.7 µM (inactive) | GI50 (HOP-62): 17.4 µM (inactive) | GI50 (UACC-62): 14.1 µM (inactive) | GI50 (HOP-92): 12.6 µM (inactive) | GI50 (A498): 19.9 µM (inactive) | GI50 (M14): 23.1 µM (inactive) | GI50 (TK-10): 31 µM (inactive) | GI50 (ACHN): 12.9 µM (inactive) | GI50 (KM-20L2): 19.7 µM (inactive)

N#CC(C#N)=C(N)/C(C#N)=C\c1ccnc2ccccc12
GI50 (CAKI-1): 23.6 µM (inactive) | GI50 (RXF 393): 18.6 µM (inactive) | GI50 (OVCAR-8): 17.3 µM (inactive) | GI50 (IGROV-1): 22.1 µM (inactive) | GI50 (SF-268): 18.5 µM (inactive) | GI50 (CCRF-CEM): 3.21 µM (inactive) | GI50 (XF498): 30.1 µM (inactive) | GI50 (HCT-116): 0.962 µM (active) | GI50 (SN12C): 18.8 µM (inactive) | GI50 (SF-539): 15.1 µM (inactive) | GI50 (NCI-H23): 19.9 µM (inactive) | GI50 (U-251): 20 µM (inactive) | GI50 (NCI-H522): 30 µM (inactive) | GI50 (UO-31): 18.2 µM (inactive) | GI50 (786-0): 18.9 µM (inactive) | GI50 (Malme-3M): 24.8 µM (inactive) | GI50 (SNB-19): 31.8 µM (inactive) | GI50 (SK-MEL-5): 14.6 µM (inactive) | GI50 (DLD-1): 5.71 µM (inactive) | GI50 (K562): 4.24 µM (inactive) | GI50 (SK-MEL-28): 20.2 µM (inactive) | GI50 (SF-295): 28.2 µM (inactive) | GI50 (HOP-18): > 100 µM (inactive) | GI50 (NCI-H460): 39.3 µM (inactive) | GI50 (OVCAR-4): 72.6 µM (inactive) | GI50 (HL-60): 2.01 µM (inactive) | GI50 (LXFL 529): 17.2 µM (inactive) | GI50 (OVCAR-5): > 100 µM (inactive) | GI50 (MOLT-4): 15.8 µM (inactive) | GI50 (M19-MEL): 19 µM (inactive) | GI50 (OVCAR-3): 31.3 µM (inactive) | GI50 (SNB-75): 31.4 µM (inactive) | GI50 (HT-29): 24.8 µM (inactive) | GI50 (UACC-257): 24.3 µM (inactive) | GI50 (SW-620): 3.49 µM (inactive) | GI50 (SNB-78): 27.1 µM (inactive) | GI50 (COLO 205): > 100 µM (inactive) | GI50 (KM12): 25.7 µM (inactive) | GI50 (SR): 16.4 µM (inactive) | GI50 (DMS-114): 16.8 µM (inactive) | GI50 (A549): > 100 µM (inactive) | GI50 (DMS-273): 17.3 µM (inactive) | GI50 (HCC 2998): 37 µM (inactive) | GI50 (HOP-62): 23.9 µM (inactive) | GI50 (UACC-62): 18.9 µM (inactive) | GI50 (HOP-92): 23 µM (inactive) | GI50 (M14): 23 µM (inactive) | GI50 (TK-10): 35.2 µM (inactive) | GI50 (ACHN): 40.6 µM (inactive)
